Type in all cases: functional
For assay [1], the species on record is Oryctolagus cuniculus. Kind of assay: Tested in vitro for maximal rate of platelet aggregation induced by adenosine diphosphate (10 e5 mol/L) at a dose of 10 e5 mol/L in rabbit blood.
The species named for assay [2] is Oryctolagus cuniculus. Kind of assay: Tested in vitro for maximal rate of platelet aggregation induced by adenosine diphosphate (10 e5 mol/L) at a dose of 10 e6 mol/L in rabbit blood.
Assay [3] is filed under the species Oryctolagus cuniculus. The assay is described as follows: Tested in vitro for maximal rate of platelet aggregation induced by adenosine diphosphate (10 e5 mol/L) at a dose of 10 e7 mol/L in rabbit blood.
For assay [4], the species on record is Oryctolagus cuniculus. The assay is described as follows: Tested in vitro for the maximal rate of platelet aggregation induced by platelet activating factor (10 e-7 mol/L) at a dose of 10 e5 mol/L in rabbit blood.
The species entered for assay [5] is Oryctolagus cuniculus. The assay is described as follows: Tested in vitro for the maximal rate of platelet aggregation induced by platelet activating factor (10 e-7 mol/L) at a dose of 10 e6 mol/L in rabbit blood.
The species named for assay [6] is Oryctolagus cuniculus. Kind of assay: Tested in vitro for the maximal rate of platelet aggregation induced by platelet activating factor (10 e-7 mol/L) at a dose of 10 e7 mol/L in rabbit blood.
The subject of assay [7] is Rattus norvegicus. The assay is described as follows: Tested for the effect on the dry thrombus weight at a dose of 5 umol/kg in male wistar anesthetized rat.
Assay [8] relates to Rattus norvegicus. The assay is described as follows: Tested for the effect on the wet thrombus weight at a dose of 5 umol/kg in male wistar anesthetized rat.
For the next assay, the system named is SACC-LM. The assay is described as follows: Tested for the effect of compound on the adhesion of high pulmonary metastatic SACC cell line SACC-LM and platelets at 5 mg/mL.
Assay [9] deals with Rattus norvegicus. Kind of assay: Tested for the effect on the wet thrombus weight at a dose of 5 uM/kg in male wistar anesthetized rat.
For assay [10], the system named is Rattus norvegicus. Kind of assay: Tested for the effect on the dry thrombus weight at a dose of 5 uM/kg in male wistar anesthetized rat.

Structures are written as SMILES. Where a SMILES comes first, the peptide text is derived from it. [ ]: non-standard residue; d: D form. Tpi = O=C(O)[C@@H]1Cc2c([nH]c3ccccc23)CN1

Regarding `NC(N)=NCCC[C@H](N)C(=O)NCC(=O)N[C@@H](CC(=O)O)C(=O)N[C@@H](Cc1ccccc1)C(=O)O` (H-RGDF-OH), the Am in the assay listed under Oryctolagus cuniculus [1] turned out to be 7.36%; in the assay listed under Oryctolagus cuniculus [2] it was 22.11%; in the assay listed under Oryctolagus cuniculus [3], 35.7%; in the assay filed under Oryctolagus cuniculus [4] it was 7.81%; in the assay listed under Oryctolagus cuniculus [5], 23.8%; in the assay listed under Oryctolagus cuniculus [6], 39.18%. Moreover, the Thrombus weight in the assay with Rattus norvegicus [7] was 4.14 mg; in the assay on Rattus norvegicus [8], 26.61 mg. This molecule had an Activity with SACC-LM of 29.7%.
On to `CC(C)[C@H](NC(=O)[C@H](CC(=O)O)NC(=O)CNC(=O)[C@@H](N)CCCN=C(N)N)C(=O)O` (H-RGDV-OH), for which the Am is listed as 9.8% in the assay filed under Oryctolagus cuniculus [1]; 29.4% in the assay filed under Oryctolagus cuniculus [2]; 51.16% in the assay filed under Oryctolagus cuniculus [3]; 19.56% in the assay filed under Oryctolagus cuniculus [4]; 34.17% in the assay listed under Oryctolagus cuniculus [5]; 54.36% in the assay listed under Oryctolagus cuniculus [6]. Moreover, the Thrombus weight in the assay on Rattus norvegicus [7] is 6.03 mg; with Rattus norvegicus [8], 34.62 mg. In the assay with SACC-LM, this molecule showed an Activity of 32.1%.
Consider `N=C(N)NCCC[C@H](NC(=O)[C@@H]1Cc2c([nH]c3ccccc23)CN1)C(=O)NCC(=O)N[C@@H](CC(=O)O)C(=O)N[C@@H](Cc1ccccc1)C(=O)O` (H-[Tpi]RGDF-OH), for which the Am in the assay listed under Oryctolagus cuniculus [1] came to 9.01%; in the assay listed under Oryctolagus cuniculus [2], 21.05%; in the assay listed under Oryctolagus cuniculus [3] it was 36.05%; in the assay listed under Oryctolagus cuniculus [4] it was 20.05%; in the assay listed under Oryctolagus cuniculus [5] it was 25.54%; in the assay filed under Oryctolagus cuniculus [6], 36.05%. In addition, the Thrombus weight is reported as 2.76 mg in the assay on Rattus norvegicus [7] and 22.3 mg in the assay with Rattus norvegicus [9]. This molecule gave an Activity in the assay with SACC-LM of 28.1%.
In the case of `N=C(N)NCCC[C@H](NC(=O)[C@@H]1Cc2c([nH]c3ccccc23)CN1)C(=O)NCC(=O)N[C@@H](CC(=O)O)C(=O)N[C@@H](CO)C(=O)O` (H-[Tpi]RGDS-OH), the Am in the assay filed under Oryctolagus cuniculus [1] amounted to 16.11%; in the assay listed under Oryctolagus cuniculus [2], 43.05%; in the assay listed under Oryctolagus cuniculus [3] it was 50.16%; in the assay listed under Oryctolagus cuniculus [4], 28.07%; in the assay filed under Oryctolagus cuniculus [5], 34.15%; in the assay filed under Oryctolagus cuniculus [6], 56.1%. The Thrombus weight with Rattus norvegicus [7] is 4.98 mg; in the assay on Rattus norvegicus [8], 28.09 mg. Also, the Activity in the assay on SACC-LM was found to be 36.1%.
As to `CC(C)[C@H](NC(=O)[C@H](CC(=O)O)NC(=O)CNC(=O)[C@H](CCCN=C(N)N)NC(=O)[C@@H]1Cc2c([nH]c3ccccc23)CN1)C(=O)O` (H-[Tpi]RGDV-OH), the Am in the assay filed under Oryctolagus cuniculus [1] is on record as 10.75%; in the assay filed under Oryctolagus cuniculus [2], 26.01%; in the assay listed under Oryctolagus cuniculus [3], 50.2%; in the assay filed under Oryctolagus cuniculus [4] it was 24.11%; in the assay filed under Oryctolagus cuniculus [5], 35.05%; in the assay listed under Oryctolagus cuniculus [6], 54.1%. Besides, the Thrombus weight was 4.87 mg with Rattus norvegicus [7] and 29.49 mg with Rattus norvegicus [8]. In the assay on SACC-LM, this molecule returned an Activity of 30.2%.
Take `N=C(N)NCCC[C@H](N)C(=O)NCC(=O)N[C@@H](CC(=O)O)C(=O)NC(CO)C(=O)O` (single isomer, unassigned): the Am was found to be 14.22% in the assay listed under Oryctolagus cuniculus [1]; 40.54% in the assay filed under Oryctolagus cuniculus [2]; 52.85% in the assay filed under Oryctolagus cuniculus [3]; 21.16% in the assay filed under Oryctolagus cuniculus [4]; 36.15% in the assay listed under Oryctolagus cuniculus [5]; 57.2% in the assay listed under Oryctolagus cuniculus [6]. For the same molecule, the Thrombus weight in the assay with Rattus norvegicus [7] was 7.68 mg; in the assay on Rattus norvegicus [8], 43.61 mg. The Activity in the assay on SACC-LM was found to be 35.8%.
Turning to `O=C(O)[C@@H]1Cc2c([nH]c3ccccc23)CN1` [CYCLOMETHYLTRYPTOPHAN], the Am in the assay filed under Oryctolagus cuniculus [1] was 24.6%; in the assay listed under Oryctolagus cuniculus [2] it was 45.16%; in the assay listed under Oryctolagus cuniculus [3], 53.66%; in the assay listed under Oryctolagus cuniculus [4], 35.66%; in the assay filed under Oryctolagus cuniculus [5] it was 50.18%; in the assay listed under Oryctolagus cuniculus [6], 55.15%. The Thrombus weight in the assay with Rattus norvegicus [10] is recorded as 7.17 mg; in the assay with Rattus norvegicus [8], 42.99 mg. Besides, in the assay with SACC-LM, the Activity came to 45.6%.

The values are drawn from ChEMBL document CHEMBL1135067, “Synthesis and antithrombotic activity of carbolinecarboxyl RGD sequence” (2002).
